Molecular target: T1, BpsCAβ (β-carbonic anhydrase) (Burkholderia pseudomallei, UniProt Q63Y17)
T1 construct: gene BPSL0372
Test: biochemical

T1 sequence (Q63Y17 1-256 limits assumed): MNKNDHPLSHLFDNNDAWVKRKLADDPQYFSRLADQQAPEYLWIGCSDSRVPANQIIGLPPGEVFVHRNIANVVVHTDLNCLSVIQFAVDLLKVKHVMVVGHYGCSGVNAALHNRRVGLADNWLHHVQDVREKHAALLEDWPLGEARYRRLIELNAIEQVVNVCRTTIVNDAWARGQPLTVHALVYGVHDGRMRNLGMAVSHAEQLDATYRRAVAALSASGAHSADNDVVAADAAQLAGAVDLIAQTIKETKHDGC

**Q.** With `CCN[C@H]1CN(CCCOC)S(=O)(=O)c2sc(S(N)(=O)=O)cc21` [BRZ, brinzolamide] as the compound, how does the Ki read?
**A.** 4.27 µM

**Q.** Which Ki does the source give for `Cc1ccc(-c2cc(C(F)(F)F)nn2-c2ccc(S(N)(=O)=O)cc2)cc1` [CLX, celecoxib] here?
**A.** > 50 µM

**Q.** Which Ki does the source give for `NS(=O)(=O)c1cc(Cl)c(Cl)c(S(N)(=O)=O)c1` [DCP, dichlorophenamide] here?
**A.** 0.529 µM

**Q.** For `NS(=O)(=O)c1ccc(S(=O)(=O)Nc2cccc3c(Cl)c[nH]c23)cc1` [IND, indisulam], which Ki is on record?
**A.** 4.37 µM

**Q.** Which Ki does the source give for `CC(=O)N=c1sc(S(N)(=O)=O)nn1C` [MZA, methazolamide] here?
**A.** 0.186 µM

**Q.** For `CC1(C)O[C@@H]2[C@@H](CO[C@@]3(COS(N)(=O)=O)OC(C)(C)O[C@@H]23)O1` [TPM, topiramate], which Ki is on record?
**A.** > 50 µM

**Q.** Which Ki does the source give for `NS(=O)(=O)Cc1noc2ccccc12` [ZNS, zonisamide] here?
**A.** 4.06 µM

**Q.** How did the Ki turn out when `Nc1cccc(S(N)(=O)=O)c1` [compound 1, metanilamide] was run?
**A.** > 50 µM

**Q.** `Nc1ccc(S(N)(=O)=O)cc1` [compound 2, sulfanilamide] was tested. Which Ki did it give?
**A.** 3.89 µM

**Q.** Which Ki does the source give for `NS(=O)(=O)c1cccc(S(N)(=O)=O)c1` [compound 3, 3] here?
**A.** 3.17 µM

**Q.** Which Ki does the source give for `Cc1ccc(S(N)(=O)=O)cc1` [compound 4, 4] here?
**A.** > 50 µM

**Q.** With `NCc1ccc(S(N)(=O)=O)cc1` [compound 5, 5] as the compound, how does the Ki read?
**A.** 3.9 µM

**Q.** `Nc1ccc(S(N)(=O)=O)cc1F` [compound 7, 7] was tested. Which Ki did it give?
**A.** > 50 µM

**Q.** With `Nc1ccc(S(N)(=O)=O)cc1Cl` [compound 8, 8] as the compound, how does the Ki read?
**A.** > 50 µM

**Q.** `Nc1ccc(S(N)(=O)=O)cc1Br` [compound 9, 9] was tested. Which Ki did it give?
**A.** > 50 µM

**Q.** `NS(=O)(=O)c1cc(Cl)cc(Cl)c1O` [compound 10, 10] was tested. Which Ki did it give?
**A.** 4.1 µM

**Q.** Which Ki does the source give for `Nc1nnc(S(N)(=O)=O)s1` [compound 13, deacetylated derivative of AAZ] here?
**A.** 3.06 µM

**Q.** For `Cn1nc(S(N)(=O)=O)sc1=N` [compound 14, deacetylated derivative of MZA], which Ki is on record?
**A.** 2.5 µM

**Q.** Which Ki does the source give for `Nc1ccc(S(=O)(=O)Nc2nnc(S(N)(=O)=O)s2)cc1` [compound 20, aminobenzolamide] here?
**A.** 0.266 µM

Reference: publication PMC6155308 (Molecules : A Journal of Synthetic Chemistry and Natural …, 2017)
